Measured values as given in patent publication US20220146526A1, “METHOD FOR EVALUATING SAMPLE, ANALYSIS METHOD, METHOD FOR DETECTING DEGRADED SAMPLE, MARKER FOR DETECTING DEGRADED BLOOD PLASMA SAMPLE, AND MARKER FOR DETECTING DEGRADED SERUM SAMPLE” (SHIMADZU CORPORATION, priority 2019, published 2022).
Where “and” joins values, the source holds several entries; their conditions need not be identical. Equal values may be shown once.

Legend:
Assay type in all cases: physicochemical, human
[1] = GC/MS of blood plasma sample: time from blood collection to centrifugation (Table A); conditions: for Rate of increase or decrease: detection intensity relative to 1 at 15 minutes; for Rate of increase or decrease / Increase or decrease: blood collection to centrifugation; for Increase or decrease: detection intensity
Experimental: (§1) At room temperature, 5 mL of blood from a healthy subject was taken into a blood-collecting vessel containing EDTA, and the blood-collecting vessel was inverted for mixing, then cooled, and allowed to stand at 4° C. Here, in order to investigate how the detection intensity of molecules contained in the sample was affected in a case where the time to cooling was set to 5 minutes or more as compared to that in a case where the time to cooling was set to 1 minute or less, preparations were performed under both the former condition and the latter condition. After standing, the blood sample was subjected to centrifugation under a condition of 4° C., 3000 rpm, and 15 minutes. […] After centrifugation, the blood-collecting vessel was left to stand at room temperature for 30 minutes, and the blood plasma was isolated during this 30 minutes. The obtained blood plasma sample was frozen and stored. Here, in order to investigate how the detection intensity of molecules contained in the sample was affected in cases where freezing and thawing was performed 4 times, 6 times, and 10 times after freezing as compared to that in a case where freezing and thawing was performed 2 times after freezing, freezing and thawing was performed under the respective conditions of 2, 4, 6, and 10 times.
(§2) Frozen blood plasma samples and serum samples were subjected to GC/MS or LC/MS. In GC/MS, the blood plasma samples and serum samples were subjected to methoxymation and trimethylsilylation and then introduced to GC-MS.
(§3) GC/MS was conducted using GCMS·TQ8040 (Shimadzu Corporation) that was a GC·MS equipped with AOC·20i (Shimadzu Corporation) as an autosampler.
(§4) Column: BPX5 (inner diameter of 0.25 mm, length of 30 m, and film thickness of 0.25 μm) (SGE)
(§5) Column temperature: maintained at 60° C. for 2 minutes, then raised at 15° C./min, and maintained at 330° C. for 3 minutes.
(§6) Inlet temperature: 250° C.
(§7) Carrier gas control mode: constant linear velocity of 39.0 cm/sec
(§8) Sample introduction method: split (split ratio of 30:1) Injection volume: 1 μL
(§9) Ionization method: electron ionization
(§10) Ionization current: 60 μA
(§11) Interface temperature: 280° C.
(§12) Ion source temperature: 200° C.
(§13) Mode: multiple reaction monitoring (MRM)
The rate of increase or decrease in Table A is the value of detection intensity relative to 1 that is the detection intensity in a case where the time from blood collection to centrifugation is set to 15 minutes.

[2] = GC/MS of serum sample: time from blood collection to centrifugation (Table G); conditions: blood collection to centrifugation; for Rate of increase or decrease: detection intensity relative to 1 at 15 minutes; for Increase or decrease: detection intensity
Experimental: (§14) After standing, the blood sample was subjected to centrifugation under a condition of room temperature, 3500 rpm, and 5 minutes. […] After centrifugation, the blood-collecting vessel was left to stand at room temperature, and the serum was isolated during this time. Here, in order to investigate how the detection intensity of molecules contained in the sample was affected in cases where the time during which the blood-collecting vessel was left at room temperature was set to 1 hour and 6 hours as compared to that in a case where the time was set to 30 minutes, preparations were performed under the respective conditions of 30 minutes, 1 hour, and 6 hours. The obtained serum sample was frozen and stored. Here, in order to investigate how the detection intensity of molecules contained in the sample was affected in cases where freezing and thawing was performed 4 times, 6 times, and 10 times after freezing as compared to that in a case where freezing and thawing was performed 2 times after freezing, freezing and thawing was performed under the respective conditions of 2, 4, 6, and 10 times.
as §2, §3, §4, §5, §6, §7, §8, §9, §10, §11, §12, §13
The rate of increase or decrease in Table G is the value of detection intensity relative to 1 that is the detection intensity in a case where the time from blood collection to centrifugation is set to 15 minutes.

[3] = GC/MS of serum sample: time from centrifugation to isolation (Table H); set-up: key to Rate of increase or decrease / Rate of increase or decrease (first value, increase): detection intensity relative to 1 at 30 min centrifugation-to-isolation; conditions: for Rate of increase or decrease: detection intensity relative to 1 at 30 minutes; for Increase or decrease: detection intensity
Experimental: as §14, §2, §3, §4, §5, §6, §7, §8, §9, §10, §11, §12, §13
The rate of increase or decrease in Table H is the value of detection intensity relative to 1 that is the detection intensity in a case where the time from centrifugation to isolation is set to 30 minutes.

[4] = GC/MS of serum sample: number of times of freezing and thawing (Table I); set-up: key to Rate of increase or decrease / Rate of increase or decrease (first value, increase): detection intensity relative to 2 freeze-thaw cycles = 1; conditions: for Rate of increase or decrease: detection intensity relative to 1 at 2 times; for Number of times when compound is affected: detection intensity changed by 30% or more vs 2 times of freezing and thawing
Experimental: as §14, §2, §3, §4, §5, §6, §7, §8, §9, §10, §11, §12, §13
The rate of increase or decrease in Table I is the value of detection intensity relative to 1 that is the detection intensity in a case where the number of times of freezing and thawing is set to 2 times.

[5] = LC/MS of blood plasma sample: time from blood collection to centrifugation (Table D); conditions: for Increase or decrease: detection intensity, blood collection to centrifugation, after 12 hours vs 15 minutes; for Rate of increase or decrease (second value, decrease) / Rate of increase or decrease (first value, increase): different from individual to individual, relative to 1 at 15 minutes, collection to centrifugation, after 12 hours; for Rate of increase or decrease (second value, decrease): individuals with decrease; for Rate of increase or decrease (first value, increase): individuals with increase
Experimental: as §1, §2
(§15) Analysis column: Discovery HS F5-3 (inner diameter of 2.1 mm, length of 150 mm, film thickness of 3 μm) (Sigma-Aldrich)
(§16) Column temperature: 40° C.
(§17) (A) 0.1% formic acid (dissolved in water)
(§18) (B) 0.1% formic acid (dissolved in acetonitrile)
(§19) Flow velocity: 0.25 mL/min
(§20) Ionization method: electrospray
(§21) Temperature: • Desolvation Line (DL) temperature: 250° C. • Heat block temperature: 400° C. • Interface temperature: 300° C.
(§22) Gas flow rate: • Nebulizer gas flow rate: 3.0 L/min • Drying gas flow rate: 10.0 L/min • Heating gas flow rate: 10.0 L/min
as §13
The rate of increase or decrease in Table D is the value of detection intensity relative to 1 that is the detection intensity in a case where the time from blood collection to centrifugation is set to 15 minutes.

[6] = LC/MS of serum sample: number of times of freezing and thawing (Table M); set-up: key to Rate of increase or decrease: detection intensity relative to 1 at 2 freeze-thaw cycles; conditions: for Rate of increase or decrease: 6 times of freezing and thawing; for Number of times when compound is affected / Increase or decrease: serum sample, LC/MS; for Number of times when compound is affected: detection intensity changed by 30% or more vs 2 times of freezing and thawing; for Increase or decrease: detection intensity vs 2 times of freezing and thawing
Experimental: as §14, §2, §15, §16, §17, §18, §19, §20, §21, §22, §13
The rate of increase or decrease in Table M is the value of detection intensity relative to 1 that is the detection intensity in a case where the number of times of freezing and thawing is set to 2 times.

[7] = 10 times of freezing and thawing
[8] = serum sample, GC/MS, detection intensity vs 2 times of freezing and thawing
[9] = serum, GC/MS, freezing and thawing 10 times
[10] = detection intensity, serum, GC/MS, freezing and thawing 10 times vs 2 times

## CC(C)CCC[C@@H](C)[C@H]1CC[C@H]2[C@@H]3CC=C4C[C@@H](O)CC[C@]4(C)[C@H]3CC[C@]12C [Cholesterol]
[1]; after 12 hours
  Rate of increase or decrease: 1.38
[1]; after 12 hours vs 15 minutes
  Increase or decrease: Increase

## O=C(O)C=C(CC(=O)O)C(=O)O [Aconitic acid]
[1]; after 4 hours
  Rate of increase or decrease: 0.41
[1]; after 4 hours vs 15 minutes
  Increase or decrease: Decrease
[2]; after 4 hours
  Rate of increase or decrease: 1.52
[2]; after 4 hours vs 15 minutes
  Increase or decrease: Increase
[3]; after 1 hour
  Rate of increase or decrease: 0.04
[3]; after 1 hour vs 30 minutes
  Increase or decrease: Decrease

## CCCCCCCCCCCCCCCCCC(=O)O [Stearic acid]
[1]; after 12 hours
  Rate of increase or decrease: 2.13
[1]; after 12 hours vs 15 minutes
  Increase or decrease: Increase
[4]; [7]
  Rate of increase or decrease: 1.33
[4]; serum sample, GC/MS
  Number of times when compound is affected: 10 times
[4]; [8]
  Increase or decrease: Increase

## CCCCC/C=C\C/C=C\CCCCCCCC(=O)O [Linoleic acid]
[1]; after 12 hours
  Rate of increase or decrease: 1.34
[1]; after 12 hours vs 15 minutes
  Increase or decrease: Increase

## CCC(N)C(=O)O (stereo not drawn) [2-Aminobutyric acid]
[5]
  Increase or decrease: Different from individual
  Rate of increase or decrease (second value, decrease): 0.65
  Rate of increase or decrease (first value, increase): 1.53
[3]; after 6 hours
  Rate of increase or decrease: 1.60
[3]; after 6 hours vs 30 minutes
  Increase or decrease: Increase
[4]; [9]
  Rate of increase or decrease: 2.63
[4]; [10]
  Increase or decrease: Increase
[6]; relative to 1 at 2 times, different from individual to individual, first value (increase)
  Rate of increase or decrease: 1.31
[6]; relative to 1 at 2 times, different from individual to individual, second value (decrease)
  Rate of increase or decrease: 0.61
[6]
  Number of times when compound is affected: 6 times
  Increase or decrease: Different from individual

## CCCCCCCCCCCCCCCC(=O)O [Palmitic acid]
[1]; after 12 hours
  Rate of increase or decrease: 4.05
[1]; after 12 hours vs 15 minutes
  Increase or decrease: Increase

## N[C@@H](Cc1c[nH]c2ccccc12)C(=O)O [Tryptophan]
[5]
  Increase or decrease: Different from individual
  Rate of increase or decrease (second value, decrease): 0.66
  Rate of increase or decrease (first value, increase): 1.62
[6]; detection intensity relative to 1 at 2 times
  Rate of increase or decrease: 0.66
[6]
  Number of times when compound is affected: 6 times
  Increase or decrease: Decrease

## CCCCCCCCCCCCCC(=O)O [Myristic acid]
[1]; after 12 hours
  Rate of increase or decrease: 1.55
[1]; after 12 hours vs 15 minutes
  Increase or decrease: Increase
[2]; after 8 hours
  Rate of increase or decrease: 1.30
[2]; after 8 hours vs 15 minutes
  Increase or decrease: Decrease

## O=C(O)C(O)Cc1ccc(O)cc1 (stereo not drawn) [4-Hydroxyphenyllactic acid]
[1]; after 12 hours
  Rate of increase or decrease: 1.33
[1]; after 12 hours vs 15 minutes
  Increase or decrease: Increase
[3]; after 1 hour
  Rate of increase or decrease: 0.64
[3]; after 1 hour vs 30 minutes
  Increase or decrease: Decrease

## CCCCC/C=C\C/C=C\C/C=C\C/C=C\CCCC(=O)O [Arachidonic acid]
[1]; after 4 hours
  Rate of increase or decrease: 1.56
[1]; after 4 hours vs 15 minutes
  Increase or decrease: Increase
[4]; [9]
  Rate of increase or decrease: 1.52
[4]; [10]
  Increase or decrease: Increase

## O=C(CO)[C@H](O)[C@@H](O)[C@H](O)CO [Sorbose]
[1]; after 4 hours vs 15 minutes
  Increase or decrease: Different from individual
[1]; different from individual to individual, individuals with decrease, relative to 1 at 15 minutes, collection to centrifugation, after 4 hours
  Rate of increase or decrease (second value, decrease): 0.67
[1]; different from individual to individual, individuals with increase, relative to 1 at 15 minutes, collection to centrifugation, after 4 hours
  Rate of increase or decrease (first value, increase): 2.10
[2]; after 4 hours
  Rate of increase or decrease: 1.53
[2]; after 4 hours vs 15 minutes
  Increase or decrease: Increase
[4]; [7]
  Rate of increase or decrease: 0.68
[4]; serum sample, GC/MS
  Number of times when compound is affected: 10 times
[4]; [8]
  Increase or decrease: Decrease

## CCCCCCCC/C=C\CCCCCCCC(=O)O [Oleic acid]
[1]; after 12 hours
  Rate of increase or decrease: 4.05
[1]; after 12 hours vs 15 minutes
  Increase or decrease: Increase

## CC(CN)C(=O)O (stereo not drawn) [3-Aminoisobutyric acid]
[1]; after 12 hours
  Rate of increase or decrease: 1.44
[1]; after 12 hours vs 15 minutes
  Increase or decrease: Increase
[4]; [9]
  Rate of increase or decrease: 1.47
[4]; [10]
  Increase or decrease: Increase

## O=C(O)C(=O)CO [3-Hydroxypyruvic acid]
[2]; after 4 hours
  Rate of increase or decrease: 0.58
[2]; after 4 hours vs 15 minutes
  Increase or decrease: Decrease
[3]; after 6 hours
  Rate of increase or decrease: 1.88
[3]; after 6 hours vs 30 minutes
  Increase or decrease: Increase
[4]; [9]
  Rate of increase or decrease: 4.59
[4]; [10]
  Increase or decrease: Increase

## O=C(CO)[C@H](O)CO [Erythrulose]
[2]; after 4 hours
  Rate of increase or decrease: 0.58 and 0.55
[2]; after 4 hours vs 15 minutes
  Increase or decrease: Decrease
[3]; after 1 hour
  Rate of increase or decrease: 1.31
[3]; after 1 hour vs 30 minutes
  Increase or decrease: Increase
[4]; serum, GC/MS, freezing and thawing 4 times
  Rate of increase or decrease: 0.45 and 0.46
[4]; detection intensity, serum, GC/MS, freezing and thawing 4 times vs 2 times
  Increase or decrease: Decrease
